Laboratory results taken from patent publication US20050255111A1, “Use of an inhibitor or antagonist against tissue factor” (priority 2002, published 2005).

Columns and labels:
IBMIR = IBMIR in vitro
TF = TF synthesis and secretion in cultured human islets (TF content by EIA); type: cell-based
Procedure: Islets were cultured for 24 h in CMRL-medium containing […] Nicotinamide, which is the standard medium used for islet culture. The medium was thereafter exchanged to CMRL-medium without Nicotinamid. After a baseline period of another 24 h, islets were handpicked for analysis of TF content. Culture was continued for 48 h with medium containing agents known to affect TF expression in monocytes and endothelial cells. These were, L-Arginin, Cyclosporin A, Enalapril, acetylcysteine and nicotinamid. The islets were harvested, the TF content analysed using a commercial EIA kit and the islets tested in the in vitro loop model.
Islets were cultured for 48 h in medium containing 0, 10, 25 and 50 mM Nicotinamid and the intracellular TF concentration assessed, see FIG. 6. The islets were also exposed to fresh human ABO compatible blood in the in vitro loop model. Samples were retrieved after 5, 15, 30 and 60 min and analysed for TAT, see FIG. 7.
Islets were cultured for 48 h in medium containing Enalapril (40 μg/ml), Cyclosporin A (10 μmol/L), L-Aginine (1 mmol/L), Nicotinamide (10 mmol/L) and the intracellular TF concentration assessed. The concentration of Tf is expressed as percentage of the untreated control, see FIG. 8.

SMILES	IBMIR in vitro (IBMIR)	production of tissue factor in the islets (TF content) (TF; nicotinamide 0 to 50 mM, 48 h culture)	secretion of TF (TF; nicotinamide, dose dependent)
N=C(N)c1ccc(CNC(=O)[C@@H]2CCN2C(=O)[C@H](NCC(=O)O)C2CCCCC2)cc1 [Melagatran]	abrogated		
NC(=O)c1cccnc1 [nicotinamide]		dose-dependently inhibited	inhibited
